As usually defined, the IC50 is the concentration that gives 50% inhibition.

Data on 11 molecules can be found in patent US10919889B2, “Chiral heterocyclic compound with hedgehog pathway antagonist activity, method and use thereof” (SUZHOU KINTOR PHARMACEUTICALS, INC., priority 2016, dated 2021).

Assay [1] has as its system Hh signaling pathway. Put plainly: NIH3T3-GRE-Luc luciferase reporter assay (primary assay). Format: cell-based. From the text:
NIH3T3 cells (CRL-1658, ATCC) were maintained in DMEM (Gibico) supplemented with 10% FBS (Hyclone). GRE-Luc plasmid was generated by inserting 8×Gli-1 responsive element (GRE) into the multiple cloning site of pGL4.26 vector (Promega). NIH3T3-GRE-Luc reporter cell line was established by hygromycin (Invitrogen) selection after transfected with GRE-Luc luciferase reporter plasmid. Single clones were validated by the induction of luciferase by recombinant sonic hedgehog (sHh) protein or small molecule agonist SAG (ABIN629346). Selected clone was used to monitor the Hh signaling.
The NIH3T3-GRE-Luc cells were maintained in complete culture medium (DMEM with 4 mM L-Gln, 1.5 g/L sodium bicarbonate and 4.5 g/L glucose supplemented with 100 μg/mL hygromycin and 10% FBS). When confluent, the cells were trypsinized and re-suspended in assay medium (0.5% serum-containing DMEM). After 100 µL/well of cells suspension was added to the 96-well-plate (Final cell concentration is 15,000 cells/well), cells were cultured for additional 48 hours before adding the compounds.
Compounds were serially diluted in DMSO and further diluted with assay medium. In an embodiment, 10 nM SAG was added in assay medium as the agonist of Hh signaling. After the compounds and agonist were prepared, the medium was removed carefully. 100 μL of assay medium containing compound and agonist was added to the cell with care. Cell plates were incubated at 37° C. for additional 48 hours.
Following the 48 hours incubation, 40 μL/well of luciferase media (Brigh-Glo, Promega) was added to the cells. The plate was incubated at room temperature for 5 minutes under gentle shaking. Luminescence signal was measured with plate reader (PHERAstar FS, BMG). The potency of compounds was calculated based on the inhibition of luminescence signaling.
NIH3T3 cells (CRL-1658, ATCC) were maintained in DMEM (11965, Gibico) supplemented with 10% FBS (Hyclone). GRE-Luc plasmid was generated by cloning 8×Gli-1 responsive element (GRE) into the MCS of pGL4.26 (Promega). NIH3T3-GRE-Luc reporter cell lines were established by hygromycin (Invitrogen) selection after transfection with GRE-Luc luciferase reporter plasmid. Single clones were validated for the assay quality with N-terminal fragment of recombinant sonic hedgehog protein or small molecule agonist SAG (ABIN629346). Selected clone were used to monitor the Hh signaling.
The NIH3T3-GRE-Luc cells were maintained in complete culture medium (DMEM with 4 mM L-Gln, 1.5 g/L sodium bicarbonate and 4.5 g/L glucose supplemented with 100 ug/ml hygromycin and 10% FBS). When confluent, the cells were trypsinized and resuspended in assay medium (0.5% serum-containing DMEM). After 100 ul/well of cells suspension was added to the 96-well-plate (Final cell concentration is 15,000 cells/well), cells were cultured for additional 48 hours before adding the compounds.
Compounds were serially diluted in DMSO and further diluted with assay medium. In an embodiment, 10 nM SAG was added in assay medium as the agonist of Hh signaling. After the compounds and agonist were prepared, carefully remove medium (Aspirate the medium with pipette instead of vacuum, or else the NIH3T3 cells monolayer will be detached). 100 ul of assay medium containing compound or agonist was added to the cell with care. Cell plates were incubated at 37 degree for additional 48 hours.
Following the 48 hours incubation, 40 ul/well of luciferase media (Brigh-Glo, Promega) was added to the cells. The plate was incubated at room temperature for 5 min under gentle shaking. Luminescence signal was measured with plate reader (PHERAstar FS, BMG). The potency of compounds was calculated basing on the inhibition of luminescence signaling.
On the technique in general: In a reporter assay the amount or activity of a reporter protein is the signal.

The subject of assay [2] is Hh signaling pathway. The note with it: cited from earlier work.
Where [3] appears, read: IC50 value of Vismodegib over that of the tested compound in the same assay.
Where [4] appears, read: primary assay, Table 5, read-out: SMO IC50.

Values joined by “and” are separate entries in the source; they are usually repeats but may differ in a detail not shown here. Equal values may be shown once. Read-outs that look alike come from different tables or passages of the source.

With `Cc1cnc(-c2cc(N3CCc4nc(N5CCC(O)C5)ncc4C3=O)ncc2Cl)c(C)c1` (stereo not drawn) [C], in the assay with Hh signaling pathway [1] (setting [3]), the Ratio was found to be 0.16. Also, the IC50 in the assay on Hh signaling pathway [1] (setting [4]) stood at 272 nM.

On to `Cc1cnc(-c2cc(N3CCc4nc(N5CCC(O)CC5)ncc4C3=O)ncc2Cl)c(C)c1` [Compound A-97], for which the “ratio to vismodegib (relative efficacy), WO2014113191A1” value in the assay with Hh signaling pathway [2] (previous patent) is “about 0.5 fold”; in the assay on Hh signaling pathway [2] (previous patent, listed as A97), 0.54 fold. Moreover, the IC50 in the assay with Hh signaling pathway [2] (previous patent, read-out: IC50 of NIH3T3-GRE-Luc, reported in WO2014113191A1) is 84 nM.

Take `Cc1cnc(-c2cc(N3CCc4nc(N5CCC(O)CC5)ncc4[C@@H]3C)ncc2Cl)c(C)c1` [Compound B2, (S)-1-(6-(5′-chloro-3,5-dimethyl-[2,4′-bipyridin]-2′-yl)-5-methyl-5,6,7,8-tetrahydropyrido[4,3-d]pyrimidin-2-yl)piperidin-4-ol]: in the assay on Hh signaling pathway [1], the “Hh pathway inhibitory activity (in words)” value is “relatively poor”. Besides, the IC50 was 17 nM with Hh signaling pathway [1] (48 h, 10 nM SAG as agonist, 48 hours, read-out: Effect IC50 (nM)(GRE reporter assay)) and 17 nM with Hh signaling pathway [1] (setting [4]). Also, the Ratio in the assay on Hh signaling pathway [1] (IC50 of vismodegib over that of the tested compound in the same assay) and in the assay with Hh signaling pathway [1] (setting [3]) was 1.1 in each case.

Regarding `Cc1cnc(-c2cc(N3CCc4nc(NC5CC5)ncc4[C@@H]3C)ncc2Cl)c(C)c1` [Compound B3, (5 S)-6-[5-chloro-4-(3,5-dimethyl-2-pyridyl)-2-pyridyl]-N-cyclopropyl-5-methyl-7,8-dihydro-5H-pyrido[4,3-d]pyrimidin-2-amine], the Ratio with Hh signaling pathway [1] (setting [3]) is listed as 3.1. Also, the IC50 in the assay on Hh signaling pathway [1] (setting [4]) stood at 4 nM.

With `Cc1cnc(-c2cc(N3CCc4nc(NC5CC5)ncc4[C@H]3C)ncc2Cl)c(C)c1` [Compound B4, (R)-6-(5′-Chloro-3,5-dimethyl-[2,4′-bipyridin]-2′-yl)-N-cyclopropyl-5-methyl-5,6,7,8-tetrahydropyrido[4,3-d]pyrimidin-2-amine], the Ratio in the assay with Hh signaling pathway [1] (setting [3]) was 8.1. Moreover, in the assay with Hh signaling pathway [1] (setting [4]), the IC50 worked out at 2.2 nM.

For the molecule `CCC(=O)Nc1ncc2c(n1)CCN(c1cc(-c3ncc(C)cc3C)c(Cl)cn1)[C@@H]2C` [Compound B5, (R)—N-(6-(5′-chloro-3,5-dimethyl-[2,4′-bipyridin]-2′-yl)-5-methyl-5,6,7,8-tetrahydropyrido[4,3-d]pyrimidin-2-yl)propionamide], in the assay on Hh signaling pathway [1] (setting [3]), the Ratio came to 0.35. Moreover, in the assay with Hh signaling pathway [1] (setting [4]), the IC50 is 75 nM.

Take `Cc1cnc(-c2cc(N3CCc4nc(NC(=O)C(C)(C)C)ncc4[C@H]3C)ncc2Cl)c(C)c1` [Compound B6, (R)—N-(6-(5′-chloro-3,5-dimethyl-[2,4′-bipyridin]-2′-yl)-5-methyl-5,6,7,8-tetrahydropyrido[4,3-d]pyrimidin-2-yl)pivalamide]: in the assay on Hh signaling pathway [1] (setting [3]), the Ratio is recorded as 6.7. Moreover, in the assay on Hh signaling pathway [1] (setting [4]), the IC50 stood at 3.9 nM.

For `Cc1cnc(-c2cc(N3CCc4nc(N5CCC(O)C5)ncc4C3C)ncc2Cl)c(C)c1` (stereo not drawn) [D], the Ratio in the assay with Hh signaling pathway [1] (setting [3]) was found to be 3.2. Further, the 50% inhibitory concentration (IC50) in the assay with Hh signaling pathway [1] (setting [4]) was 4.2 nM.

Turning to `Cc1cnc(-c2cc(N3CCc4nc(NCC5CC5)ncc4C3C)ncc2Cl)c(C)c1` (stereo not drawn) [E], the Ratio in the assay with Hh signaling pathway [1] (setting [3]) was 1.74. Further, the IC50 in the assay on Hh signaling pathway [1] (setting [4]) came out at 7.7 nM.

Take `Cc1cnc(-c2cc(N3CCc4nc(NC5CC5)ncc4C3C)ncc2Cl)c(C)c1` (stereo not drawn) [F]: the Ratio with Hh signaling pathway [1] (setting [3]) was 4.5. In addition, the IC50 in the assay with Hh signaling pathway [1] (setting [4]) stood at 4.4 nM.

As for `CS(=O)(=O)c1ccc(C(=O)Nc2ccc(Cl)c(-c3ccccn3)c2)c(Cl)c1` [vismodegib, reference compound], the IC50 was 8.8 nM and 45 nM in the assay on Hh signaling pathway [2] (reference in the run of A-55 (8.8) and of A-97 (45), read-out: IC50 of reference vismodegib, reported in WO2014113191A1); 13.4 nM and 17.9 nM and 19.3 nM in the assay on Hh signaling pathway [1] (vismodegib control in the same assay as the test compound of the line, read-out: Effect IC50 (nM)(GRE reporter assay: vismodegib)); 26 nM in the assay with Hh signaling pathway [1] (vismodegib control in the same assay as the test compound of the line, read-out: SMO IC50 (nM) (vismodegib)).
